Experimental data from ChEMBL document CHEMBL3992560, “Synthesis and pharmacological evaluation of pyrazolo[1,5-a]pyrimidin-7(4H)-one derivatives as potential GABAA-R ligands” (Bioorg Med Chem, 2017).
pKi: −log10 of the molar value. Active and inactive are the calls of the source. The calls are words filed in the database; no cut-off is given here.

Experiments:
[1] = species: Bos taurus; test: Displacement of [3H]Ro15-1788 from GABA-A receptor benzodiazepine site in bovine brain cerebral cortex membranes at 10 uM relative to control; details: Membrane
[2] = Displacement of [3H]Ro15-1788 from GABA-A receptor benzodiazepine site in bovine brain cerebral cortex membranes; set-up: species or system Bos taurus, Membrane; details: for pKi: read-out: Ki
[3] = tested on: Rattus norvegicus; test: Anxiolytic-like activity in Sprague-Dawley rat assessed as total number of arm entries at 1 mg/kg, po administered 30 mins prior to test by elevated […] maze test; type: functional
[4] = tested on: Mus musculus; test: Anxiolytic-like activity in CD-1 mouse assessed as time spent in light area at 1 mg/kg, po administered 30 mins prior to test by light/dark exploration test relative to control; type: functional
[5] = tested on: Mus musculus; test: Anxiolytic-like activity in CD-1 mouse assessed as number of transfer from one compartment to other at 1 mg/kg, po administered 30 mins prior to test by light/dark exploration test; type: functional
[6] = tested on: Rattus norvegicus; test: Anxiolytic-like activity in Sprague-Dawley rat assessed as time spent in open arms at 1 mg/kg, po administered 30 mins prior to test by elevated […] maze test relative to control; type: functional
[7] = target: GABA-A receptor; alpha-5/beta-3/gamma-2 (Homo sapiens) (UniProt P18507+P28472+P31644); test: Displacement of [3H]Ro15-1788 from GABA-Aalpha5beta3gamma2 receptor (unknown origin) expressed in cell membranes after 1 hr relative to control
[8] = tested on: Mus musculus; test: Anxiolytic-like activity in CD-1 mouse assessed as number of transfer from one compartment to other at 30 mg/kg, po administered 30 mins prior to test followed by flumazenil injection by light/dark exploration test; type: functional
[9] = tested on: Mus musculus; test: Anxiolytic-like activity in CD-1 mouse assessed as number of transfer from one compartment to other at 3 mg/kg, po administered 30 mins prior to test by light/dark exploration test; type: functional
[10] = tested on: Mus musculus; test: Anxiolytic-like activity in CD-1 mouse assessed as time spent in light area at 3 mg/kg, po administered 30 mins prior to test by light/dark exploration test relative to control; type: functional
[11] = tested on: Mus musculus; test: Anxiolytic-like activity in CD-1 mouse assessed as number of transfer from one compartment to other at 10 mg/kg, po administered 30 mins prior to test by light/dark exploration test; type: functional
[12] = target: T1, GABA-A receptor; alpha-1/beta-2/gamma-2 (Homo sapiens, UniProt P14867+P18507+P47870); test: Displacement of [3H]Ro15-1788 from GABA-Aalpha1beta2gamma2 receptor (unknown origin) expressed in cell membranes after 1 hr
T1 sequence (P14867 whole entry): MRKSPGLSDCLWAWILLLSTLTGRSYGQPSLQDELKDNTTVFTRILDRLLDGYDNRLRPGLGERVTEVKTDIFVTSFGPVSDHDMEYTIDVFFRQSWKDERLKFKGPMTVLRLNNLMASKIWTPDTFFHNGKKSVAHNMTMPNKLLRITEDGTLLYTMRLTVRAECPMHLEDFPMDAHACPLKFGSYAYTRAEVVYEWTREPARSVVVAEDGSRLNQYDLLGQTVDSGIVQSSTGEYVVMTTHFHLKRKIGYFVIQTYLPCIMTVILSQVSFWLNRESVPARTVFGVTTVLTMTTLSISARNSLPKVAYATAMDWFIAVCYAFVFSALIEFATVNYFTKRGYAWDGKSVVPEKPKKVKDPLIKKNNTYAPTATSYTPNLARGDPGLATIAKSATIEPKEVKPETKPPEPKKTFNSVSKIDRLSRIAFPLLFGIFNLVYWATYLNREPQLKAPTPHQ
T1 sequence (P47870 whole entry): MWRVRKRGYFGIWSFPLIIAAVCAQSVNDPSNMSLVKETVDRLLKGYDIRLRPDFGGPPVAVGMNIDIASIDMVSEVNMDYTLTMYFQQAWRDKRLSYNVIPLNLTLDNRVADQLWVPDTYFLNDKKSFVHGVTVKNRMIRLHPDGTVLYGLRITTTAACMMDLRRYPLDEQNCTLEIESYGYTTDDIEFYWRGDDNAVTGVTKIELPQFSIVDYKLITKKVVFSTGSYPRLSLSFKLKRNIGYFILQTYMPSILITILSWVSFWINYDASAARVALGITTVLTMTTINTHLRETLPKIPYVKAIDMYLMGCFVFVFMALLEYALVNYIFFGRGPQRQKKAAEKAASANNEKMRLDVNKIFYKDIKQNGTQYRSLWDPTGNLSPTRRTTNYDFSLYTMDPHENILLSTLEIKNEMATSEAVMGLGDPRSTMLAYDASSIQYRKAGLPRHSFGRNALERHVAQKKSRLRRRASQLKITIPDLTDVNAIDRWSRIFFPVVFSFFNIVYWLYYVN
T1 sequence (P18507 whole entry): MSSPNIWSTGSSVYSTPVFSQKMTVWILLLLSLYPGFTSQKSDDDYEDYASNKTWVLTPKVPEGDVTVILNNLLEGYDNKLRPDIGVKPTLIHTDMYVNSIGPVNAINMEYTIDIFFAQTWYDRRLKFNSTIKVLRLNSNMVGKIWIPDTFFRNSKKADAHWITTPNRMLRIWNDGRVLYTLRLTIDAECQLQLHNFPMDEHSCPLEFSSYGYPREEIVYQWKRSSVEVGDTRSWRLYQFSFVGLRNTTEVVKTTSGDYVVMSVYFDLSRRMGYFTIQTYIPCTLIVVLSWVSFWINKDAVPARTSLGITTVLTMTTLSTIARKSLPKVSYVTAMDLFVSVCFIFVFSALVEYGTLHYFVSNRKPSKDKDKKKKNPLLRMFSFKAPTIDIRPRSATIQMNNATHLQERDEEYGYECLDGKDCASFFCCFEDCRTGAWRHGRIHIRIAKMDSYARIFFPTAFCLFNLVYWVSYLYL

[13] = tested on: Mus musculus; test: Anxiolytic-like activity in CD-1 mouse assessed as time spent in light area at 30 mg/kg, po administered 30 mins prior to test by light/dark exploration test relative to control; type: functional
[14] = tested on: Rattus norvegicus; test: Anxiolytic-like activity in Sprague-Dawley rat assessed as total number of arm entries at 10 mg/kg, po administered 30 mins prior to test by elevated […] maze test; type: functional
[15] = tested on: Rattus norvegicus; test: Anxiolytic-like activity in Sprague-Dawley rat assessed as time spent in open arms at 10 mg/kg, po administered 30 mins prior to test by elevated […] maze test relative to control; type: functional
[16] = tested on: Mus musculus; test: Anxiolytic-like activity in CD-1 mouse assessed as time spent in light area at 10 mg/kg, po administered 30 mins prior to test followed by flumazenil injection by light/dark exploration test relative to control; type: functional
[17] = target: GABA A receptor alpha-2/beta-2/gamma-2 (Homo sapiens) (UniProt P47870+P18507+P47869); test: Displacement of [3H]Ro15-1788 from GABA-Aalpha2beta2gamma2 receptor (unknown origin) expressed in cell membranes after 1 hr relative to control
[18] = tested on: Mus musculus; test: Anxiolytic-like activity in CD-1 mouse assessed as number of transfer from one compartment to other at 30 mg/kg, po administered 30 mins prior to test by light/dark exploration test; type: functional
[19] = tested on: Mus musculus; test: Anxiolytic-like activity in CD-1 mouse assessed as time spent in light area at 10 mg/kg, po administered 30 mins prior to test by light/dark exploration test relative to control; type: functional
[20] = tested on: Mus musculus; test: Anxiolytic-like activity in CD-1 mouse assessed as increase in time spent in light area at 1 to 30 mg/kg, po administered 30 mins prior to test by light/dark exploration test; type: functional, organism-based

SMILES | inhibition [1] [%] | pKi [2] | further results
O=c1c(-c2ccccc2)c[nH]c2c(-c3ccc(F)cc3)cnn12 | > 80 | 6.88 | –
CN1C(=O)CN=C(c2ccccc2)c2cc(Cl)ccc21 [DIAZEPAM] | – | 8.00 | Activity [3]: 10.5; Activity [4]: 171.6%; Activity [5]: 8.3; Activity [6]: 34.9%
O=c1c(Cc2ccccc2)c[nH]c2c(-c3ccc4ccccc4c3)cnn12 | > 80 | 7.13 | –
O=c1c(-c2ccccc2)c[nH]c2c(-c3ccccc3)cnn12 | > 80 | 6.43 | –
O=c1c(-c2ccccc2)c[nH]c2c(-c3ccsc3)cnn12 | > 80 | 7.14 | –
O=c1c(-c2ccccc2)c[nH]c2c(-c3cccnc3)cnn12 | > 80 | 7.23 | –
O=c1c(-c2ccccc2)c[nH]c2c(-c3cccc4ccccc34)cnn12 | > 80 | 6.43 | –
O=c1c(Cc2ccccc2)c[nH]c2c(-c3ccccn3)cnn12 | > 80 | 7.53 | inhibition [7]: 31%; Activity [4]: 113.9%; Activity [8]: 12.8; Activity [9]: 21.3; Activity [10]: 145.2%; Activity [11]: 23.9; Activity [5]: 15; pKi [12]: 6.74; Activity [13]: 164.4%; Activity [14]: 10.5; Activity [15]: 29.6%; Activity [16]: 120.08%; inhibition [17]: 14%; Activity [18]: 28.9; Activity [19]: 165.4%
Cc1cccc(-c2cnn3c(=O)c(-c4ccccc4)c[nH]c23)c1 | > 80 | 7.06 | –
O=c1c(Cc2ccccc2)c[nH]c2c(-c3ccccc3)cnn12 | > 80 | 6.88 | –
COc1cccc(-c2cnn3c(=O)c(-c4ccccc4)c[nH]c23)c1 | > 80 | 6.72 | –
O=c1c(-c2ccccc2)c[nH]c2c(-c3cccc(C(F)(F)F)c3)cnn12 | > 80 | 6.93 | –
O=c1c(Cc2ccccc2)c[nH]c2c(-c3cccc(Br)c3)cnn12 | > 80 | 7.52 | –
O=c1c(Cc2ccccc2)c[nH]c2c(-c3cccc4ccccc34)cnn12 | > 80 | 6.95 | –
O=c1c(Cc2ccccc2)c[nH]c2c(Cc3ccccc3)cnn12 | < 80 | – | Ki [2]: Not Active
O=c1c(Cc2ccccc2)c[nH]c2c(-c3cccnc3)cnn12 | > 80 | 7.13 | –
O=c1c(Cc2ccccc2)c[nH]c2c(-c3ccsc3)cnn12 | < 80 | – | Ki [2]: Not Active
O=c1c(-c2ccccc2)c[nH]c2c(Cc3ccccc3)cnn12 | < 80 | – | Ki [2]: Not Active
O=c1c(Cc2ccccc2)c[nH]c2c(-c3cccc(C(F)(F)F)c3)cnn12 | > 80 | 7.65 | –
COc1cccc(-c2cnn3c(=O)c(Cc4ccccc4)c[nH]c23)c1 | > 80 | 7.30 | –
O=c1c(Cc2ccccc2)c[nH]c2c(-c3cccs3)cnn12 | > 80 | 6.30 | –
O=c1c(Cc2ccccc2)c[nH]c2c(-c3ccc(F)cc3)cnn12 | > 80 | 7.46 | –
O=c1c(-c2ccccc2)c[nH]c2c(-c3ccccn3)cnn12 | > 80 | 6.68 | Activity [20]: inactive
O=c1c(-c2ccccc2)c[nH]c2c(-c3cccs3)cnn12 | > 80 | 6.67 | –
Cc1cccc(-c2cnn3c(=O)c(Cc4ccccc4)c[nH]c23)c1 | > 80 | 7.74 | –
O=c1c(-c2ccccc2)c[nH]c2c(-c3cccc(Br)c3)cnn12 | > 80 | 7.41 | –
O=c1c(-c2ccccc2)c[nH]c2c(-c3ccc4ccccc4c3)cnn12 | < 80 | – | Ki [2]: Not Active
